Measurements as given in patent US20070134319A1, “Pharmaceutical formulations of bisphosphonates” (priority 2003, published 2007).

Description: The solubility of zoledronic acid in [sequence] 44/14 and [sequence]

O=P(O)(O)C(O)(Cn1ccnc1)P(=O)(O)O [zoledronic acid, 1-hydroxy-2-(imidazol-1-yl)ethane-1,1-diphosphonic acid]
Zoledronic acid solubility in all the excipients (liquid lipidic media) (assessed visually): < 0.2 mg/g of excipient
Solubility of zoledronic acid in VITAMIN E-TPGS (at 40° C.): less than 0.22 mg/g
Solubility of zoledronic acid in GELUCIRE 50/13 (at 60° C.): less than 1 mg/g
Solubility in pH 4.5 acetate buffer (pH 4.5): readily soluble
Precipitation upon addition of flush (pH 4.5 acetate buffer solution, tap water (final pH 3.8) or citric acid (final pH~2.2) flush): does not precipitate out
